From US7399775B2, “β-amyloid protein production/secretion inhibitor” (Daiichi Pharmaceutical Co., Ltd., priority 2001, dated 2008) come the findings set out here.

In data set [1] the test system is β-amyloid protein (Aβ) production/secretion in E35 cells (H4 cells transfected with APP751). Nature of the data set: Cell-based assay for inhibition of production or secretion of β-amyloid protein (sandwich ELISA of Aβ in culture medium). Also noted: species or system human. The settings on record: Homo sapiens, 24 h, 24 h with compound, Aβ in medium by sandwich ELISA, read-out: Activity (EC50 class, inhibition of Aβ secreted in culture medium). The procedure:
Cell-Based Assay for Screening of a Compound Which Inhibits Production or Secretion of β-Amyloid Protein
E35 cells which were established by transfecting APP751 gene which is a wild type human β-amyloid protein precursor into human glioma cells (H4 cells), were used to analyze inhibitory activity of a compound against β-amyloid production. The amount of β protein (Aβ) secreted in a culture medium was measured by the sandwich enzyme-linked imunosorbent assay.
E35 cells were seeded in Dulbecco's Modified Eagle's Medium containing 10% inactivated fetal bovine serum on 96-well plates and cultured in humidified air and 5% CO2 at 37° C. in a CO2 incubator. Twenty-four hours after seeding of the cells, a test compound dissolved in DMSO was added to the medium. The DMSO solution of the compound was prepared so as to give the final concentration of DMSO in the medium 0.05%. The cells were cultured for additional twenty-four hours, and then the cultured medium was collected. The medium collected was applied to a 96-well ELISA plate on which a monoclonal antibody 25-1, which recognized Aβ25-35, was immobilized, followed by the incubation at 4° C. for 16 to 20 hours. After washing with a phosphate buffer (pH 7.4), a biotinylated monoclonal antibody MA32-40, which recognizes Aβ1-8, was added to the plate, and the plate was incubated at 4° C. for 2 hours. Then alkaline phosphatase-conjugated streptavidin was added to the plate. Alkaline phosphatase activity was measured by a […] assay using BlouPhos (manufactured by KPL) as a substrate. An amount of Aβ in the medium was calculated using a calibration curve separately created. EC50 of the test compound was presented as the concentration that gives 50% inhibitory activity compared to the control cells which were not treated with the compound.
(In general: An ELISA detects its analyte on a solid surface through an enzyme-linked reagent.)

`CCC=CC(c1cc(F)ccc1F)S(=O)(=O)c1ccc(Cl)cc1` (stereo not drawn) [Example 14, 2-[1-[(4-Chlorophenyl)sulfonyl]-2-penten-1-yl]-1,4-difluorobenzene] yielded a melting point of 99 to 100 °C. In addition, the EC50 in data set [1] was 0.5 to 5 µM.
The matching figures for `O=S(=O)(c1ccc(Cl)cc1)C(c1cc(F)ccc1F)C1CCOCC1` (stereo not drawn) [Example 287, 4-[[(4-Chlorophenyl)sulfonyl](2,5-difluorophenyl)methyl]tetrahydropyran]: 150 to 152 °C and 0.05 to 0.5 µM.
`O=S(=O)(c1ccc(Cl)cc1)C(CCCCCO)c1cc(F)ccc1F` (stereo not drawn) [Example 32, 6-[(4-Chlorophenyl)sulfonyl]-6-(2,5-difluorophenyl)-1-hexanol] displayed a melting point of 98 to 99 °C. The EC50 in data set [1] fell in the range of 0.05 to 0.5 µM.
With `CC(CCCS(C)(=O)=O)C(c1cc(F)ccc1F)S(=O)(=O)c1ccc(Cl)cc1` (stereo not drawn) [Example 46, 2-[1-[(4-Chlorophenyl)sulfonyl]-2-methyl-5-(methylsulfonyl)pentyl]-1,4-difluorobenzene], the melting point was in the range of 115 to 117 °C. Besides, in data set [1], the EC50 was in the range of 0.05 to 0.5 µM.
For `O=S(=O)(c1ccc(Cl)cc1)C(c1cccnc1)c1cc(F)ccc1F` (stereo not drawn) [Example 141, 3-[[(4-Chlorophenyl)sulfonyl]-(2,5-difluorophenyl)methyl]pyridine], the melting point is 130 to 131 °C. Moreover, the EC50 in data set [1] fell in the range of 0.05 to 0.5 µM.
For the compound `CCCC=C(c1cc(F)ccc1F)S(=O)(=O)c1ccc(Cl)cc1` [Example 12, 2-[1-[(4-Chlorophenyl)sulfonyl]-1-penten-1-yl]-1,4-difluorobenzene], the melting point is 95.5 to 97 °C. For the same compound, the EC50 in data set [1] was 0.5 to 5 µM.
In the case of `O=S(=O)(c1ccc(Cl)cc1)C(CCCCO)c1cc(F)ccc1F` (stereo not drawn) [Example 29, 5-[(4-Chlorophenyl)sulfonyl]-5-(2,5-difluorophenyl)-1-pentanol], the melting point lay in the range of 84 to 86 °C. Besides, the EC50 in data set [1] lay in the range of 0.05 to 0.5 µM.
The like results for `O=S(=O)(c1ccc(Cl)cc1)C(c1cc(F)ccc1F)c1cc(N2CCOCC2)ncc1Cl` (stereo not drawn) [Example 347, 4-[5-Chloro-4-[(4-chlorophenylsulfonyl)-(2,5-difluorophenyl)methyl]pyridin-2-yl]morpholine] were, in that order, 180 to 181 °C and ≤ 0.05 µM.
The matching figures for `O=S(=O)(c1ccc(Cl)cc1)C(c1cc(F)ccc1F)c1cc(N2CCC(O)CC2)ncc1Cl` (stereo not drawn) [Example 404, 5-Chloro-4-[(4-chlorophenylsulfonyl)-(2,5-difluorophenyl)methyl]-2-(4′-hydroxypiperidin-1′-yl)pyridine]: 146 to 148 °C and ≤ 0.05 µM.

What is called melting point is the temperature, or range, at which the solid turns liquid. The EC50 is the concentration that produces a half-maximal response.
